Common to all, as to assay: NCI anticancer screen, dose series, 48 h
For assay [1], the system named is 786-0.
The test system of assay [2] is CCRF-CEM.
For assay [3], the system named is HCT-15.
Assay [4] concerns HT-29.
Assay [5] concerns K562.
Assay [6] relates to M14.
The subject of assay [7] is MOLT-4.
The subject of assay [8] is NCI-H226.
In assay [9] the test system is NCI-H23.
In assay [10] the test system is NCI-H460.
The test system of assay [11] is OVCAR-3.
For assay [12], the system named is OVCAR-4.
Assay [13] deals with OVCAR-5.
For assay [14], the system named is SF-268.
In assay [15] the test system is SF-539.
Assay [16] relates to SR.
Assay [17] deals with TK-10.
The subject of assay [18] is RXF 393.
For assay [19], the system named is UACC-62.

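Cells were grown in 96-well plates and exposed to each compound for 48 hours at five concentrations; endpoints were interpolated linearly between bracketing concentrations, or set to the highest concentration if not reached. GI50: concentration for 50% inhibition of growth.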 Calls of active or inactive are those of the source. Rule as the data show it: active = GI50 up to about 1.1 µM and inactive = higher.

In the case of `O=S(=O)(N=[Se](=O)(c1ccccc1)c1ccccc1)c1ccccc1`, the GI50 was > 100 µM (inactive) in assay [1]; > 100 µM (inactive) in assay [2]; over 100 µM in assay [3]; > 100 µM (inactive) in [4]; > 100 µM (inactive) in assay [5]; > 100 µM (inactive) in assay [6]. Besides, the GI50 in assay [7], in [8], in [9], in assay [10], in [11] and in [12] was > 100 µM (inactive) each time. For the same molecule, the GI50 in [13], in assay [14], in assay [15], in assay [16] and in [17] was > 100 µM (inactive) in each case.

In the case of `C=C(CO)CC(O)c1ccccc1` (stereo not drawn), the GI50 in assay [1] is > 100 µM (inactive); in assay [2], > 100 µM (inactive); in assay [3], over 100 µM; in assay [4] it was > 100 µM (inactive); in [5] it was > 100 µM (inactive); in [6] it was > 100 µM (inactive). In addition, the GI50 in [7], in assay [8], in assay [9], in assay [10], in [11] and in [12] was > 100 µM (inactive) in each case. In addition, the GI50 in [13], in assay [18], in [14], in assay [15], in [17] and in assay [19] was > 100 µM (inactive) each time.

For `COc1ccccc1NC(=O)C1=C(C)NC(C)=C(C(=O)Nc2ccccc2OC)C1c1ccc(C(C)C)cc1`, the GI50 in assay [1] was > 100 µM (inactive); in [3] it was over 100 µM; in assay [4], > 100 µM (inactive); in [6], > 100 µM (inactive); in assay [7], 9.18 µM (inactive); in [8], > 100 µM (inactive). For the same molecule, the GI50 in [9] is > 100 µM (inactive); in [10], 61.1 µM (inactive); in assay [11], > 100 µM (inactive); in [12], 16.8 µM (inactive); in assay [13] it was > 100 µM (inactive); in assay [14], > 100 µM (inactive). The GI50 in [15] was > 100 µM (inactive); in assay [16] it was 15.5 µM (inactive); in assay [17] it was > 100 µM (inactive); in assay [19], > 100 µM (inactive).

Turning to `CN1C(=O)C2C(C1=O)C1(O)c3ccccc3C2(N)c2ccccc21` (stereo not drawn), the GI50 in assay [1] was > 100 µM (inactive); in assay [2], > 100 µM (inactive); in assay [3], over 100 µM; in [4], > 100 µM (inactive); in assay [5], > 100 µM (inactive); in [6] it was > 100 µM (inactive). Also, the GI50 in assay [7], in [8], in assay [9], in [10], in assay [11] and in assay [12] was > 100 µM (inactive) throughout. Besides, the GI50 in assay [13], in [18], in assay [14], in [15], in assay [17] and in assay [19] was > 100 µM (inactive) each time.

Regarding `O=C1C(c2ccccc2)=C(c2ccccc2)C(c2ccc(CCCCCCc3ccc(C4=C(c5ccccc5)C(=O)C(c5ccccc5)=C4c4ccccc4)cc3)cc2)=C1c1ccccc1`, the GI50 in assay [1] is > 100 µM (inactive); in [2] it was > 100 µM (inactive); in assay [3], over 100 µM; in assay [4], > 100 µM (inactive); in [5], > 100 µM (inactive); in assay [6], > 100 µM (inactive). Besides, the GI50 in assay [7], in assay [9], in assay [10], in assay [11], in [12] and in assay [13] was > 100 µM (inactive) in each case. In addition, the GI50 in assay [18] is 26.4 µM (inactive); in [14], > 100 µM (inactive); in [15], > 100 µM (inactive); in [17] it was > 100 µM (inactive); in assay [19], > 100 µM (inactive).

On to `CCN(c1ccc(Br)cc1)c1c(Br)c(=O)nc2ccccn12`, for which the GI50 in assay [1] is > 100 µM (inactive); in [2] it was > 100 µM (inactive); in [3], 99.1 µM; in assay [4], > 100 µM (inactive); in assay [5] it was 90.6 µM (inactive); in assay [6], > 100 µM (inactive). For the same molecule, the GI50 in [7], in assay [8], in [9], in assay [10], in [11] and in assay [13] was > 100 µM (inactive) each time. The GI50 in assay [14] was > 100 µM (inactive); in assay [15], > 100 µM (inactive); in assay [16] it was > 100 µM (inactive); in assay [17], > 100 µM (inactive); in [19], 65 µM (inactive).

As to `CC(=O)OCCOCNC(=S)N/N=C/c1ccc([N+](=O)[O-])o1`, the GI50 in assay [1] is > 100 µM (inactive); in assay [2] it was 23 µM (inactive); in assay [3] it was 52.6 µM; in assay [4] it was 30.3 µM (inactive); in assay [5], 37.1 µM (inactive); in assay [6] it was 36.6 µM (inactive). Further, the GI50 is 98.4 µM (inactive) in assay [8]; 26.7 µM (inactive) in [9]; 28.7 µM (inactive) in assay [10]; 33.6 µM (inactive) in assay [11]; > 100 µM (inactive) in [12]; > 100 µM (inactive) in assay [13]. In addition, the GI50 is > 100 µM (inactive) in assay [18]; 29.5 µM (inactive) in [14]; 43.9 µM (inactive) in assay [15]; > 100 µM (inactive) in assay [17]; 18.5 µM (inactive) in assay [19].

Take `CC[C@@H]1NC(C(=O)OC)Cc2c1[nH]c1ccccc21` (stereo partly drawn): the GI50 in assay [1] is > 100 µM (inactive); in [2] it was > 100 µM (inactive); in assay [3] it was over 100 µM; in assay [4] it was > 100 µM (inactive); in [5] it was > 100 µM (inactive); in assay [6], > 100 µM (inactive). Moreover, the GI50 in [7] was > 100 µM (inactive); in assay [8] it was > 100 µM (inactive); in assay [9], > 100 µM (inactive); in assay [10] it was 27.9 µM (inactive); in [11], > 100 µM (inactive); in [12], > 100 µM (inactive). Also, the GI50 in assay [13], in assay [15], in assay [16], in assay [17] and in assay [19] was > 100 µM (inactive) throughout.

With `O=C(O[C@H](/C=C/c1ccccc1)P1(=O)N(Cc2ccccc2)[C@@H]2CCCC[C@H]2N1Cc1ccccc1)c1ccccc1`, the GI50 in assay [1] was 3.83 µM (inactive); in assay [2] it was 2.74 µM (inactive); in [3], 2.91 µM; in assay [4], 3.45 µM (inactive); in [5], 3.24 µM (inactive); in [6], 4.11 µM (inactive). The GI50 in assay [8] was 2.61 µM (inactive); in assay [9], 2.47 µM (inactive); in assay [10] it was 3.46 µM (inactive); in [11], 3.68 µM (inactive); in assay [12], 1.79 µM (inactive); in [13], 4.17 µM (inactive). For the same molecule, the GI50 is 4.06 µM (inactive) in assay [14]; 2.98 µM (inactive) in assay [15]; 3.44 µM (inactive) in assay [16]; 38.9 µM (inactive) in assay [17]; 4.86 µM (inactive) in [19].

For `COC(=O)c1ccc(OCc2ccc3nc(OC)c(OC)nc3c2)cc1`, the GI50 was > 100 µM (inactive) in assay [1]; > 100 µM (inactive) in assay [2]; over 100 µM in [3]; > 100 µM (inactive) in assay [4]; > 100 µM (inactive) in assay [5]; > 100 µM (inactive) in assay [6]. The GI50 in assay [7] was > 10 µM (inactive); in [8] it was > 100 µM (inactive); in assay [9], > 100 µM (inactive); in assay [10], > 100 µM (inactive); in assay [11], > 100 µM (inactive); in assay [12] it was > 100 µM (inactive). The GI50 in [13], in assay [14], in assay [15], in assay [16] and in [17] was > 100 µM (inactive) in each case.

In the case of `COC(=O)[C@]12CC=C3O[C@@H]4OC5(CCCCC5)O[C@@H]4C3[C@@H]1C(=O)CCC2=O` (stereo partly drawn), the GI50 is > 100 µM (inactive) in [1]; > 100 µM (inactive) in assay [2]; over 100 µM in [3]; > 100 µM (inactive) in [4]; > 100 µM (inactive) in [5]; > 100 µM (inactive) in assay [6]. Further, the GI50 in assay [7] is > 100 µM (inactive); in assay [8], > 100 µM (inactive); in assay [9], > 100 µM (inactive); in [10] it was > 100 µM (inactive); in assay [11], 36.5 µM (inactive); in assay [12], > 100 µM (inactive). In addition, the GI50 in [13], in assay [14] and in [19] was > 100 µM (inactive) throughout.

For `NS(=O)(=O)c1cc(S(N)(=O)=O)c(NC(=O)N(c2ccccc2)c2ccccc2)c(Cl)c1Cl`, the GI50 was 30.1 µM (inactive) in [1]; 1.98 µM (inactive) in assay [2]; 20.3 µM in assay [3]; 19.5 µM (inactive) in assay [4]; 20.1 µM (inactive) in assay [5]; 15.7 µM (inactive) in assay [6]. For the same molecule, the GI50 in [7] is 12.4 µM (inactive); in assay [8] it was 18.9 µM (inactive); in assay [9] it was 20 µM (inactive); in assay [10], 34.9 µM (inactive); in assay [11] it was 18.5 µM (inactive); in assay [12], 27.4 µM (inactive). Moreover, the GI50 is 42.1 µM (inactive) in assay [13]; 42.2 µM (inactive) in assay [14]; 18.4 µM (inactive) in assay [16]; 32.7 µM (inactive) in assay [17]; 26.2 µM (inactive) in assay [19].

The values above are taken from ChEMBL document CHEMBL1201862, “PubChem BioAssay data set” (2004).
